Reference: US20260007684A1, “AMIDE DERIVATIVES FOR INHIBITING NLRP3 AND USES THEREOF” (Ventus Therapeutics U.S., Inc., priority 2023, published 2026)

How the values were obtained:
[1] = biological target: T1, human NLRP3 (Homo sapiens (Human), UniProt Q96P20); test: Scintillation Proximity (SPA) NLRP3 Assay: displacement of 3H-MCC950; format: binding; settings: for IC50: read-out: SPA IC50
[2] = biological target: T1, human NLRP3; test: Human PBMC NLRP3 Assay (LPS priming, ATP stimulation, cytokine measurement); format: cell-based
[3] = biological target: T1, human NLRP3; test: Human Whole Blood (hWB) NLRP3 Assay (LPS/ATP, IL-1β); format: cell-based
[4] = human PBMC, LPS priming, ATP stimulation, read-out: PBMC IC50
[5] = human whole blood, LPS/ATP, IL-1β, read-out: hWB IC50
[6] = PBMC IC50, human PBMC, LPS priming, ATP stimulation
[7] = hWB IC50, human whole blood, LPS/ATP, IL-1β

T1 sequence (Q96P20 whole entry): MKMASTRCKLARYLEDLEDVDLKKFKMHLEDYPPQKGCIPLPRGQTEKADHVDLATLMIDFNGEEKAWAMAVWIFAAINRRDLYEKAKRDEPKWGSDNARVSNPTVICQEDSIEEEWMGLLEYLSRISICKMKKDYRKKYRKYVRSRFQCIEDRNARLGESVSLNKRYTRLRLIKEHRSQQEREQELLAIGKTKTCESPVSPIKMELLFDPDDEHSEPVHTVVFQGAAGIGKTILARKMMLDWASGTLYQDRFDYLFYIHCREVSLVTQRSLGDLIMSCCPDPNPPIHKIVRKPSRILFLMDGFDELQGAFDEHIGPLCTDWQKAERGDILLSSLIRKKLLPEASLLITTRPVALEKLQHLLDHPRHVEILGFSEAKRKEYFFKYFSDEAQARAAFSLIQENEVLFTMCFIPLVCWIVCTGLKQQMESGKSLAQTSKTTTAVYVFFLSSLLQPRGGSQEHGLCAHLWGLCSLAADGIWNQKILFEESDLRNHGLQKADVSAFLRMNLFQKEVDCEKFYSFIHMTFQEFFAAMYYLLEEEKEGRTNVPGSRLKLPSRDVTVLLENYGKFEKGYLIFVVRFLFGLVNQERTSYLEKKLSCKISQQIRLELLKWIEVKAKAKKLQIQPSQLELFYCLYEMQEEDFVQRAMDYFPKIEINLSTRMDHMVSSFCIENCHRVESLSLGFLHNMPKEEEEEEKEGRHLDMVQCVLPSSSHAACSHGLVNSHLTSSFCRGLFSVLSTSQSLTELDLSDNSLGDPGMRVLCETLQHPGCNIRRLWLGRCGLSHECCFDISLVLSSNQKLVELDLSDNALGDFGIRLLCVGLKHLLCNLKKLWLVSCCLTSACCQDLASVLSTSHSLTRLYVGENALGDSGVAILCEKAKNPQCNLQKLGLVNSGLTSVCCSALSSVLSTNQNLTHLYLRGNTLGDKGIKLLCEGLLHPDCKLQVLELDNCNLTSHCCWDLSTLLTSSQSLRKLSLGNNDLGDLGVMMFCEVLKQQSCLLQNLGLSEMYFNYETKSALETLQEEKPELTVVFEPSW

SMILES | IC50 ([1]; displacement of 3H-MCC950) [nM] | IC50 [2, 4] [nM] | IC50 [3, 5] [nM] | IC50 [2, 6] [nM] | other results
C[C@H]1CC[C@H](NC(=O)C2(c3ccc(C(F)(F)F)cc3O)CC2)CN(c2nnn[nH]2)C1 [89B*, 1-(2-hydroxy-4-(trifluoromethyl)phenyl)-N-((3S,6S)-6-methyl-1-(1H-tetrazol-5-yl)azepan-3-yl)cyclopropane-1-carboxamide] | < 1000 | 10 to 100 | > 3000 | – | –
C[C@H]1CC[C@@H](NC(=O)C2(c3ccc(C(F)(F)F)cc3O)CC2)CN(c2nnn[nH]2)C1 [89A*, 1-(2-hydroxy-4-(trifluoromethyl)phenyl)-N-((3R,6S)-6-methyl-1-(1H-tetrazol-5-yl)azepan-3-yl)cyclopropane-1-carboxamide] | < 1000 | < 10 | 2000 to 3000 | – | –
C[C@@H]1CCN(c2nnn[nH]2)C[C@H](NC(=O)C2(c3cnc(Cl)cc3O)CC2)C1 (single isomer, unassigned) [99A*] | < 1000 | 10 to 100 | 2000 to 3000 | – | –
C[C@@H]1C[C@@H](NC(=O)C2(c3ccc(C(F)F)cc3)CC2)[C@H]2CC[C@@H]1N2c1nnn[nH]1 [86A*, 1-(4-(difluoromethyl)phenyl)-N-((1R,2R,4R,5S)-4-methy1-8-(1H-tetrazol-5-yl)-8-azabicyclo[3.2.1]octan-2-yl)cyclopropane-1-carboxamide] | < 1000 | – | – | 10 to 100 | IC50 [3, 7]: < 1000 nM
C[C@@H]1CCN(c2nnn[nH]2)C[C@H](NC(=O)C2(c3ccc(Br)cc3)CC2)C1 (single isomer, unassigned) [59A*] | < 1000 | < 10 | < 1000 | – | –
C[C@@H]1CCN(c2nnn[nH]2)C[C@H](NC(=O)C2(c3ccc(C(F)(F)F)cc3)CC2)C1 (single isomer, unassigned) [61A*] | < 1000 | 10 to 100 | < 1000 | – | –
C[C@@H]1CCN(c2nnn[nH]2)C[C@H](NC(=O)C2(c3c(F)cc(Cl)cc3F)CC2)C1 (single isomer, unassigned) [72A*] | < 1000 | < 10 | > 3000 | – | –
C[C@@H]1CCN(c2nnn[nH]2)C[C@H](NC(=O)C2(c3ccc(OC(F)F)cc3)CC2)C1 (single isomer, unassigned) [58A*] | < 1000 | 10 to 100 | < 1000 | – | –
C[C@@H]1CCN(c2nnn[nH]2)C[C@H](NC(=O)C2(c3ccc(Cl)nc3O)CC2)C1 (single isomer, unassigned) [100A*] | < 1000 | 100 to 500 | > 3000 | – | –
C[C@@H]1C[C@@H](NC(=O)C2(c3ccc(OC(F)(F)F)cc3)CC2)[C@H]2CC[C@@H]1N2c1nnn[nH]1 [82A*, N-((1R,2R,4R,5S)-4-methy1-8-(1H-tetrazol-5-yl)-8-azabicyclo[3.2.1]octan-2-yl)-1-(4-(trifluoromethoxy)phenyl)cyclopropane-1-carboxamide] | < 1000 | – | – | < 10 | IC50 [3, 7]: < 1000 nM
O=C(N[C@@H]1CCC[C@@H]2CC[C@H]1N2c1nnn[nH]1)C1(c2ccc(C3CC3)cc2O)CC1 [93A*, N-((1R,2R,6R)-9-(1H-tetrazol-5-yl)-9-azabicyclo[4.2.1]nonan-2-yl)-1-(4-cyclopropyl-2-hydroxyphenyl)cyclopropane-1-carboxamide] | < 1000 | – | – | 10 to 100 | IC50 [3, 7]: 2000 to 3000 nM
C[C@@H]1C[C@@H](NC(=O)C2(c3ccc(SC(F)F)cc3)CC2)[C@H]2CC[C@@H]1N2c1nnn[nH]1 [85A*, 1-(4-((difluoromethyl)thio)phenyl)-N-((1R,2R,4R,5S)-4-methyl-8-(1H-tetrazol-5-yl)-8-azabicyclo[3.2.1]octan-2-yl)cyclopropane-1-carboxamide] | < 1000 | – | – | < 10 | IC50 [3, 7]: < 1000 nM
O=C(N[C@@H]1CC[C@H]2CC[C@@H]1N2c1nnn[nH]1)C1(c2ccc(Cl)cc2O)CC1 [75C*, N-((1S,2R,5S)-8-(1H-tetrazol-5-yl)-8-azabicyclo[3.2.1]octan-2-yl)-1-(4-chloro-2-hydroxyphenyl)cyclopropane-1-carboxamide] | < 1000 | – | 1000 to 2000 | 10 to 100 | –
O=C(N[C@@H]1CCC[C@@H]2CC[C@H]1N2c1nnn[nH]1)C1(c2ccc(C(F)(F)F)cc2O)CC1 [88A*, N-((1R,2R,6R)-9-(1H-tetrazol-5-yl)-9-azabicyclo[4.2.1]nonan-2-yl)-1-(2-hydroxy-4-(trifluoromethyl)phenyl)cyclopropane-1-carboxamide] | < 1000 | – | – | < 10 | IC50 [3, 7]: < 1000 nM
C[C@@H]1C[C@@H](NC(=O)C2(c3ccc(Cl)cc3)CC2)[C@H]2CC[C@@H]1N2c1nnn[nH]1 [80A*, 1-(4-chlorophenyl)-N-((1R,2R,4R,5S)-4-methyl-8-(1H-tetrazol-5-yl)-8-azabicyclo[3.2.1]octan-2-yl)cyclopropane-1-carboxamide] | < 1000 | – | – | 10 to 100 | IC50 [1]: 130 nM; fold increase in binding activity (SPA IC50) ([1]; relative to Compound 46A): 6.6 fold; IC50 ([2]; PBMC IC50): 10 nM; fold increase in potency as measured by PBMC IC50 ([2]; relative to Compound 46A): 10 fold; IC50 [3, 7]: < 1000 nM; IC50 ([3]; read-out: hWB IC50): 840 nM; fold increase in potency as measured by hWB IC50 ([3]; relative to Compound 46A): 3 fold
Cc1ccc(C2(C(=O)N[C@@H]3C[C@@H](C)[C@@H]4CC[C@H]3N4c3nnn[nH]3)CC2)cc1 [87A*, N-((1R,2R,4R,5S)-4-methy1-8-(1H-tetrazol-5-yl)-8-azabicyclo[3.2.1]octan-2-yl)-1-(p-tolyl)cyclopropane-1-carboxamide] | < 1000 | – | 1000 to 2000 | 10 to 100 | –
O=C(N[C@@H]1CC[C@H]2CC[C@@H]1N2c1nnn[nH]1)C1(c2ccc(OC(F)(F)F)cc2O)CC1 [78C*, N-((1S,2R,5S)-8-(1H-tetrazol-5-yl)-8-azabicyclo[3.2.1]octan-2-yl)-1-(2-hydroxy-4-(trifluoromethoxy)phenyl)cyclopropane-1-carboxamide] | < 1000 | – | 2000 to 3000 | 10 to 100 | –
O=C(N[C@@H]1CCCN(c2nnn[nH]2)C1)C1(c2ccc(Cl)cc2O)CC1 [Compound 15A, (R)-N-(1-(1H-tetrazol-5-yl)piperidin-3-yl)-1-(4-chloro-2-hydroxyphenyl)cyclopropane-1-carboxamide] | 1000 to 10000 | 100 to 500 | < 1000 | – | IC50 [1]: 1800 nM; fold increase in binding activity (SPA IC50) ([1]; relative to Compound 10A): > 5 fold; IC50 ([2]; read-out: PBMC IC50): 200 nM; fold increase in potency as measured by PBMC IC50 ([2]; relative to Compound 10A): > 10 fold; IC50 ([3]; read-out: hWB IC50): 540 nM; fold increase in potency as measured by hWB IC50 ([3]; relative to Compound 10A): > 13 fold

The next lines start with results.

IC50 ([1]; displacement of 3H-MCC950) [nM] | IC50 [2, 4] [nM] | IC50 [3, 5] [nM] | SMILES | IC50 [2, 6] [nM] | other results
< 1000 | 10 to 100 | < 1000 | C[C@H]1C[C@@H](NC(=O)C2(c3ccc(OC(F)(F)F)cc3O)CC2)CN(c2nnn[nH]2)C1 [Compound 17A, 1-(2-hydroxy-4-(trifluoromethoxy)phenyl)-N-((3R,5S)-5-methyl-1-(1H-tetrazol-5-yl)piperidin-3-yl)cyclopropane-1-carboxamide] | – | IC50 [1]: 98 nM; IC50 ([2]; read-out: PBMC IC50): 17 nM; IC50 ([3]; read-out: hWB IC50): 230 nM
< 1000 | < 10 | 1000 to 2000 | C[C@@H]1CCN(c2nnn[nH]2)C[C@H](NC(=O)C2(c3ccc(Cl)cc3F)CC2)C1 (single isomer, unassigned) [56A*] | – | –
< 1000 | < 10 | 2000 to 3000 | C[C@@H]1CCN(c2nnn[nH]2)C[C@H](NC(=O)C2(c3ccc(C(F)(F)F)c(F)c3O)CC2)C1 (single isomer, unassigned) [31A*, 1-(3-fluoro-2-hydroxy-4-(trifluoromethyl)phenyl)-N-(5-methyl-1-(1H-tetrazol-5-yl)azepan-3-yl)cyclopropane-1-carboxamide] | – | –
< 1000 | < 10 | < 1000 | Cc1ccc(C2(C(=O)N[C@@H]3C[C@H](C)CCN(c4nnn[nH]4)C3)CC2)c(O)c1 (single isomer, unassigned) [67A*] | – | –
< 1000 | 10 to 100 | > 3000 | C[C@H]1C[C@@H](NC(=O)C2(c3c(O)cc(C4CC4)cc3OC(F)(F)F)CC2)CN(c2nnn[nH]2)C1 (single isomer, unassigned) [95A*] | – | –
< 1000 | 10 to 100 | < 1000 | C[C@@H]1CCN(c2nnn[nH]2)C[C@H](NC(=O)C2(c3ccc(OC(F)(F)F)cc3F)CC2)C1 (single isomer, unassigned) [64A*] | – | –
< 1000 | < 10 | > 3000 | C[C@H]1CC[C@@H](NC(=O)C2(c3ccc(Cl)cc3O)CC2)CN(c2nnn[nH]2)C1 (single isomer, unassigned) [90A*] | – | –
< 1000 | 10 to 100 | < 1000 | Cc1ccc(C2(C(=O)N[C@@H]3C[C@H](C)CN(c4nnn[nH]4)C3)CC2)c(O)c1 [Compound 20A, 1-(2-hydroxy-4-methylphenyl)-N-((3R,5S)-5-methyl-1-(1H-tetrazol-5-yl)piperidin-3-yl)cyclopropane-1-carboxamide] | – | –
< 1000 | 10 to 100 | 1000 to 2000 | C[C@@H]1CCN(c2nnn[nH]2)C[C@H](NC(=O)C2(c3ccc(OC(F)(F)F)cc3)CC2)C1 (single isomer, unassigned) [57A*] | – | –
< 1000 | 10 to 100 | < 1000 | C[C@@H]1CCN(c2nnn[nH]2)C[C@@H](NC(=O)C2(c3ccc(Cl)cc3O)CC2)C1 (single isomer, unassigned) [60B*] | – | –
< 1000 | 100 to 500 | > 3000 | C[C@H]1C[C@@H](NC(=O)C2(c3ncc(C(F)(F)F)cc3O)CC2)CN(c2nnn[nH]2)C1 [Compound 25A, 1-(3-hydroxy-5-(trifluoromethyl)pyridin-2-yl)-N-((3R,5S)-5-methyl-1-(1H-tetrazol-5-yl)piperidin-3-yl)cyclopropane-1-carboxamide] | – | –
< 1000 | < 10 | < 1000 | C[C@@H]1CCN(c2nnn[nH]2)C[C@H](NC(=O)C2(c3ccc(OC(F)(F)F)cc3O)CC2)C1 (single isomer, unassigned) [62A*] | – | –
